As usually defined, the IC50 is the concentration at which inhibition is half-maximal.

The target of this test is active FYN (human recombinant, 62.7 kDa) (Homo sapiens, UniProt P06241). Put plainly: In vitro kinase assay (Z′-LYTE FRET). As to conditions: read-out: IC50(nM) FYN INHIBITION
active FYN (human recombinant, 62.7 kDa), sequence (P06241 whole entry): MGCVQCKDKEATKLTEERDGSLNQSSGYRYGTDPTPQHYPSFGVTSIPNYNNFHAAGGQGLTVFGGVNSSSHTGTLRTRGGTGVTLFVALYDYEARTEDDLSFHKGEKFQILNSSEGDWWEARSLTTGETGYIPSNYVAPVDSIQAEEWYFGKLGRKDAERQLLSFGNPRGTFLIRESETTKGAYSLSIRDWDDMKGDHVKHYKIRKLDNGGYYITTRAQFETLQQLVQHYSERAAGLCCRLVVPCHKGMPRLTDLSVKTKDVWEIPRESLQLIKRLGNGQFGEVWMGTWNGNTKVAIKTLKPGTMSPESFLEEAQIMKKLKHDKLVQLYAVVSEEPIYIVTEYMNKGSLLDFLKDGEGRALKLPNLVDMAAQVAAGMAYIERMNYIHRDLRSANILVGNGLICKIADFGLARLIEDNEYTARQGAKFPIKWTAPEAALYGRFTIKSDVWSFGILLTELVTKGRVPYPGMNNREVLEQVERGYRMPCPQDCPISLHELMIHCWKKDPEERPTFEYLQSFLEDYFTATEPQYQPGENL
In kind it is biochemical. How it is done: Assays to determine the kinase inhibitory activity of compounds were performed using an automatic liquid handling device (Microlab STAR Hamilton) and Z′-LYTE™ Kinase Assay Platform, a Fluorescence Resonance Energy Transfer (FRET)-based assay platform compatible with high-throughput screening (HTS) applications. The assay employs a fluorescence-based, coupled-enzyme format and utilizes the differential sensitivity of phosphorylated and non-phosphorylated peptides to proteolytic cleavage.
All reagents were diluted in reaction buffer and the kinase reaction was carried out in a total volume of 10 μl, for 60 minutes at 25° C. The 0% Phosphorylation (i.e. no ATP) and 100% Phosphorylation (i.e. synthetically phosphorylated peptide supplied) Assay Controls, included in each plate, allowed to calculate the percent phosphorylation achieved in the specific reaction well. The 0% Inhibition and 0% Phosphorylation (i.e. 100% Inhibition) Controls define the dynamic range in the screen. At the end of incubation, a secondary reaction (the Development Reaction) started by adding 5 μl of Development Reagent, containing a site-specific protease that recognizes and cleaves non-phosphorylated peptides, and was interrupted after 60 minutes with 5 μl/sample of Stop Reagent.
The compounds were tested in a range of concentrations 10^−6-10^−9 M.
Results are expressed as percentage of inhibition and the IC50 values were calculated by non-linear curve fitting using GraphPad™ Prism software.
`O=C(Nc1ccc(CN2CCN(c3nccc(Nc4cc(C5CC5)[nH]n4)n3)CC2)cc1)c1ccccc1` [Compound 1, N-(4-((4-(4-((5-cyclopropyl-1H-pyrazol-3-yl)amino)pyrimidin-2-yl)piperazin-1-yl)methyl)phenyl)benzamide]: the IC50 was determined as 96 nM. With `O=C(Nc1ccc(CN2CCN(c3nccc(Nc4cc(C5CC5)[nH]n4)n3)CC2)cc1)c1ccccc1F` [Compound 3, N-(4-((4-(4-((5-cyclopropyl-1H-pyrazol-3-yl)amino)pyrimidin-2-yl)piperazin-1-yl)methyl)phenyl)-2-fluorobenzamide], the IC50 came out at 70 nM.

On to `O=C(Nc1ccc(CN2CCN(c3nccc(Nc4cc(C5CC5)[nH]n4)n3)CC2)cc1)c1ccccc1Cl` [Compound 5, 2-chloro-N-(4-((4-(4-((5-cyclopropyl-1H-pyrazol-3-yl)amino)pyrimidin-2-yl)piperazin-1-yl)methyl)phenyl)benzamide], for which the IC50 was 23 nM. The result for `CC(C)c1ccccc1C(=O)Nc1ccc(CN2CCN(c3nccc(Nc4cc(C5CC5)[nH]n4)n3)CC2)cc1` [Compound 6, N-(4-((4-(4-((5-cyclopropyl-1H-pyrazol-3-yl)amino)pyrimidin-2-yl)piperazin-1-yl)methyl)phenyl)-2-isopropylbenzamide] reads 89 nM; that for `COc1ccccc1C(=O)Nc1ccc(CN2CCN(c3nccc(Nc4cc(C5CC5)[nH]n4)n3)CC2)cc1` [Compound 7, N-(4-((4-(4-((5-cyclopropyl-1H-pyrazol-3-yl)amino)pyrimidin-2-yl)piperazin-1-yl)methyl)phenyl)-2-methoxy-benzamide], 150 nM. Consider `O=C(Nc1ccc(CN2CCN(c3nccc(Nc4cc(C5CC5)[nH]n4)n3)CC2)cc1)c1cccc(C(F)(F)F)c1` [Compound 9, N-(4-((4-(4-((5-cyclopropyl-1H-pyrazol-3-yl)amino)pyrimidin-2-yl)piperazin-1-yl)methyl)phenyl)-3-(trifluoromethyl)benzamide], for which the IC50 is more than 1000 nM. Turning to `O=C(Nc1ccc(CN2CCN(c3nccc(Nc4cc(C5CC5)[nH]n4)n3)CC2)cc1)c1ccc(C(F)(F)F)cc1` [Compound 10, N-(4-((4-(4-((5-cyclopropyl-1H-pyrazol-3-yl)amino)pyrimidin-2-yl)piperazin-1-yl)methyl)phenyl)-4-(trifluoromethyl)benzamide], the IC50 was 950 nM. Take `O=C(Nc1ccc(CN2CCN(c3nccc(Nc4cc(C5CC5)[nH]n4)n3)CC2)cc1)c1ccc(F)cc1F` [Compound 11, N-(4-((4-(4-((5-cyclopropyl-1H-pyrazol-3-yl)amino)pyrimidin-2-yl)piperazin-1-yl)methyl)phenyl)-2,4-difluoro-Benzamide]: the IC50 came out at 16 nM. The result for `COc1cc(C)ccc1C(=O)Nc1ccc(CN2CCN(c3nccc(Nc4cc(C5CC5)[nH]n4)n3)CC2)cc1` [Compound 15, N-(4-((4-(4-((5-cyclopropyl-1H-pyrazol-3-yl)amino)pyrimidin-2-yl)piperazin-1-yl)methyl)phenyl)-2-methoxy-4-methyl benzamide] reads 220 nM; that for `CS(=O)(=O)c1cccc(C(=O)Nc2ccc(CN3CCN(c4nccc(Nc5cc(C6CC6)[nH]n5)n4)CC3)cc2)c1` [Compound 16, N-(4-((4-(4-((5-cyclopropyl-1H-pyrazol-3-yl)amino)pyrimidin-2-yl)piperazin-1-yl)methyl)phenyl)-3-(methylsulfonyl)benzamide], 122 nM. The result for `CCc1cc(NC(=O)c2ccccc2F)ccc1CN1CCN(c2nc(C)cc(Nc3cc(C4CC4)[nH]n3)n2)CC1` [Compound 19, N-(4-((4-(4-((5-cyclopropyl-1H-pyrazol-3-yl)amino)-6-methylpyrimidin-2-yl)piperazin-1-yl)methyl)-3-ethylphenyl)-2-fluorobenzamide] reads 1020 nM; that for `Cc1nc(C(=O)Nc2ccc(CN3CCN(c4nccc(Nc5cc(C6CC6)[nH]n5)n4)CC3)cc2)co1` [Compound 20, N-(4-((4-(4-((5-cyclopropyl-1H-pyrazol-3-yl)amino)pyrimidin-2-yl)piperazin-1-yl)methyl)phenyl)-2-methyloxazole-4-carboxamide], 86 nM.

As to `Cc1nc(C(=O)Nc2ccc(CN3CCN(c4nccc(Nc5cc(C6CC6)[nH]n5)n4)CC3)nc2)c(C(F)(F)F)o1` [Compound 22, N-(6-((4-(4-((5-cyclopropyl-1H-pyrazol-3-yl)amino)pyrimidin-2-yl)piperazin-1-yl)methyl)pyridin-3-yl)-2-methyl-5-(trifluoromethyl)oxazole-4-carboxamide], the IC50 came to 424 nM. The result for `O=C(Nc1ccc(CN2CCN(c3nccc(Nc4cc(C5CC5)[nH]n4)n3)CC2)cc1)c1ccccn1` [Compound 24, N-(4-((4-(4-((5-cyclopropyl-1H-pyrazol-3-yl)amino)pyrimidin-2-yl)piperazin-1-yl)methyl)phenyl)picolinamide] reads 1100 nM; that for `Cc1cccnc1C(=O)Nc1ccc(CN2CCN(c3nccc(Nc4cc(C5CC5)[nH]n4)n3)CC2)cc1` [Compound 25, N-(4-((4-(4-((5-cyclopropyl-1H-pyrazol-3-yl)amino)pyrimidin-2-yl)piperazin-1-yl)methyl)phenyl)-3-methyl-picolinamide], 105 nM; that for `COc1ncccc1C(=O)Nc1ccc(CN2CCN(c3nccc(Nc4cc(C5CC5)[nH]n4)n3)CC2)cc1` [Compound 28, N-(4-((4-(4-((5-cyclopropyl-1H-pyrazol-3-yl)amino)pyrimidin-2-yl)piperazin-1-yl)methyl)phenyl)-2-methoxy-nicotinamide], 237 nM.

Turning to `C[C@@H]1CN(c2nccc(Nc3cc(C4CC4)[nH]n3)n2)CCN1Cc1ccc(NC(=O)c2cccnc2C(F)(F)F)cc1` [Compound 30, (R)-N-(4-((4-(4-((5-cyclopropyl-1H-pyrazol-3-yl)amino)pyrimidin-2-yl)-2-methylpiperazin-1-yl)methyl)phenyl)-2-(trifluoromethyl)nicotinamide], the IC50 was 180 nM.

As for `C[C@H]1CN(c2nccc(Nc3cc(C4CC4)[nH]n3)n2)CCN1Cc1ccc(NC(=O)c2cccnc2C(F)(F)F)cc1` [Compound 31, (S)-N-(4-((4-(4-((5-cyclopropyl-1H-pyrazol-3-yl)amino)pyrimidin-2-yl)-2-methyl-piperazin-1-yl)methyl)phenyl)-2-(trifluoromethyl)nicotinamide], the IC50 turned out to be 667 nM.

As to `Cn1cc(C(=O)Nc2ccc(CN3CCN(c4nccc(Nc5cc(C6CC6)[nH]n5)n4)CC3)cc2)c(C(F)(F)F)n1` [Compound 33, N-(4-((4-(4-((5-cyclopropyl-1H-pyrazol-3-yl)amino)pyrimidin-2-yl)piperazin-1-yl)-methyl)phenyl)-1-methyl-3-(trifluoromethyl)-1H-pyrazole-4-carboxamide], the IC50 stood at 74 nM. The result for `Cn1ccnc1C(=O)Nc1ccc(CN2CCN(c3nccc(Nc4cc(C5CC5)[nH]n4)n3)CC2)cc1` [Compound 34, N-(4-((4-(4-((5-cyclopropyl-1H-pyrazol-3-yl)amino)pyrimidin-2-yl)piperazin-1-yl)methyl)phenyl)-1-methyl-1H-imidazole-2-carboxamide] reads 1450 nM. The result for `O=C(Nc1ccc(CN2CCN(c3nccc(Nc4cc(C5CC5)[nH]n4)n3)CC2)cc1)c1cnccn1` [Compound 35, N-(4-((4-(4-((5-cyclopropyl-1H-pyrazol-3-yl)amino)pyrimidin-2-yl)piperazin-1-yl)methyl)phenyl)pyrazine-2-carboxamide] reads 282 nM; that for `O=C(Nc1ccc(OC(F)(F)F)cc1)c1ccc(CN2CCN(c3nccc(Nc4cc(C5CC5)[nH]n4)n3)CC2)cc1` [Compound 37, 4-((4-(4-((5-cyclopropyl-1H-pyrazol-3-yl)amino)pyrimidin-2-yl)piperazin-1-yl)methyl)-N-(4-(trifluoromethoxy)phenyl)benzamide], more than 1000 nM; that for `O=C(Nc1cccc(C(F)(F)F)c1)c1ccc(CN2CCN(c3nccc(Nc4cc(C5CC5)[nH]n4)n3)CC2)cc1` [Compound 38, 4-((4-(4-((5-cyclopropyl-1H-pyrazol-3-yl)amino)pyrimidin-2-yl)piperazin-1-yl)methyl)-N-(3-(trifluoromethyl)-phenyl)benzamide], more than 1000 nM. The result for `O=C(Nc1ccc(C(F)(F)F)cc1)c1ccc(CN2CCN(c3nccc(Nc4cc(C5CC5)[nH]n4)n3)CC2)cc1` [Compound 39, 4-((4-(4-((5-cyclopropyl-1H-pyrazol-3-yl)amino)pyrimidin-2-yl)piperazin-1-yl)methyl)-N-(4-(trifluoromethyl)phenyl)-benzamide] reads more than 1000 nM. In the case of `O=S(=O)(Nc1ccc(CN2CCN(c3nccc(Nc4cc(C5CC5)[nH]n4)n3)CC2)cc1)c1ccccc1F` [Compound 40, N-(4-((4-(4-((5-cyclopropyl-1H-pyrazol-3-yl)amino)pyrimidin-2-yl)piperazin-1-yl)methyl)phenyl)-2-fluorobenzene-sulfonamide], the IC50 is 280 nM. The result for `O=C(Nc1ccc(CN2CCN(c3nccc(Nc4cc(C5CC5)[nH]n4)n3)CC2)nn1)c1ccccc1C(F)(F)F` [Compound 42, N-(6-((4-(4-((5-cyclopropyl-1H-pyrazol-3-yl)amino)pyrimidin-2-yl)piperazin-1-yl)methyl)pyridazin-3-yl)-2-(trifluoromethyl)benzamide] reads 663 nM.

The values are drawn from patent US10125121B2, “FYN kinase inhibitors” (ROTTAPHARM BIOTECH S.R.L., priority 2015, dated 2018).
